Test results reported in ChEMBL document CHEMBL1127841, “Adenosine deaminase inhibitors: synthesis and structure-activity relationships of 2-hydroxy-3-nonyl derivatives of azoles” (J Med Chem, 1994).
pKi: −log10 of the molar value.

What follows are compounds tested against T1, Adenosine deaminase (Bos taurus, UniProt P56658) (assay: In vitro inhibition of adenosine deaminase isolated from calf intestine.).
T1 sequence (P56658 whole entry): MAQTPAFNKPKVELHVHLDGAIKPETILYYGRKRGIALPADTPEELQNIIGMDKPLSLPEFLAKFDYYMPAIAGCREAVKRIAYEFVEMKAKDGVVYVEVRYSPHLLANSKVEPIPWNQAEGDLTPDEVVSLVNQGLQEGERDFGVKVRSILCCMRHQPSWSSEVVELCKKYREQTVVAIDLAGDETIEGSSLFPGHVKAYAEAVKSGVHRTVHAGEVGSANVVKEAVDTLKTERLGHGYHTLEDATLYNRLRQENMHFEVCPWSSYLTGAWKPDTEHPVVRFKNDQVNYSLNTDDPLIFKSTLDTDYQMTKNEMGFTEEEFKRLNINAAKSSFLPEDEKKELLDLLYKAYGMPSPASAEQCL

First: CCCCCCC(C(C)O)n1cnc2c(N)nccc21 (stereo not given)
Second: CCCCCCC(C(C)O)n1cnc2c(N)ccnc21 (stereo not given)
The pKi of the first is 1.20 log units lower: 6.80 for the first, 8.00 for the second. The second binds more tightly here.

Going from `CCCCCCC(C(C)O)n1cnnn1` (stereo in doubt; 23e) to `CCCCCCC(C(C)O)n1ccnn1` (stereo in doubt; 13e), the pKi falls from 6.22 to 4.62 (1.60 log units).

Compared with `CCCCCCC(C(C)O)n1ccnn1` (stereo in doubt; 13t), `CCCCCCC(C(C)O)n1cnnn1` (stereo in doubt; 23t) is 0.82 log units higher in pKi: 4.00 for the first, 4.82 for the second. The second binds more tightly here.

Compared with `CCCCCCC(C(C)O)n1cncn1` (stereo in doubt; 18e), `CCCCCCC(C(C)O)n1cccn1` (stereo not given) is lower in pKi: 6.52 for the first, < 3.00 for the second.

`CCCCCCC(C(C)O)n1ncnn1` (stereo in doubt; 25t) and `CCCCCCC(C(C)O)n1nccn1` (stereo not given) cannot be ordered by pKi: < 3.00 for the first, < 3.40 for the second.

Going from `CCCCCCC(C(C)O)n1ccnc1` (stereo in doubt; 6t) to `CCCCCCC(C(C)O)n1cnnc1` (stereo not given), the pKi falls from 5.74 to 4.59 (1.15 log units). The first binds more tightly here.

`CCCCCCC(C(C)O)n1cncn1` (stereo in doubt; 18t) and `CCCCCCC(C(C)O)n1ccnc1` (stereo in doubt; 6e) are within 0.2 log units of each other in pKi: 6.00 for the first, 6.15 for the second.

Compound `CCCCCCC(C(C)O)n1ncnn1` (stereo in doubt; 25e) has a pKi of 5.02.
